Measurements taken from patent US12180174B2, “A2-73 crystalline polymorph compositions of matter and methods of use thereof” (ANAVEX LIFE SCIENCES CORP., priority 2018, dated 2024).
Structures can show the parent of a compound that is named as a salt. Where two headings read alike, the source gives them in different places.

Key:
[1] = Hygroscopicity / gravimetric vapor sorption (GVS); format: physicochemical; conditions: for water uptake (GVS): 90% RH
Method: This is confirmed by gravimetric vapor sorption (GVS) analysis, showing minimal water update (0.3% w/w) up to 90% RH. […] (peak temperature at ca. 91° C.). Upon further heating, Form I appears to sublime, beginning above ca. 120° C. with a weight loss of ca. 99% observed by 212.6° C. ^1H NMR spectra and HPLC-MS results were consistent with the structure of A2-73 freebase. […] FIG. 15 is a […]polarized-light microscopy (PLM) of Freebase Form I. XRPD pattern of Anavex2-73 freebase Form I obtained using copper Ka radiation is shown in FIG. 16.

[2] = Blood levels in patients on extended release dosage forms; format: in vivo, human; conditions: person
Method: A person presents with early signs of Alzheimer's disease. They are administered a pharmaceutical composition via transdermal patch containing 100 mg ANAVEX2-73 freebase with a 4 cm2 patch replaced approximately every three days administration for 120 days. Blood levels of about 10 ng/ml are being maintained.
A person presents with signs of early onset Alzheimer's disease. They are administered via a 9 cm2 transdermal patch containing a pharmaceutical composition containing 200 mg ANAVEX2-73 freebase with the patch replaced weekly for 180 days. Blood levels of about 12 ng/ml are being maintained.
A person with unspecified progressive dementia is administered 30 mg of ANAVEX2-73 fumarate in an enteric coated tablet every other day for 180 days. Blood levels reveal about 25 mg per day are being administered.
A person with unspecified progressive dementia is administered 50 mg of ANAVEX2-73 freebase in an enteric coated tablet every other day for 180 days. Blood levels reveal about 20 mg per day are being administered.

[3] = test system: unspecified progressive dementia; test: Cognitive function of patients with unspecified progressive dementia, enteric coated tablet; format: in vivo, human; conditions: 180 days
Method: A person with unspecified progressive dementia is administered 30 mg of […]2-73 fumarate in an enteric coated tablet every other day for 180 days. Blood levels reveal about 25 mg per day are being administered. […] A person with unspecified progressive dementia is administered 50 mg of […]2-73 freebase in an enteric coated tablet every other day for 180 days. Blood levels reveal about 20 mg per day are being administered.

[4] = Solid form stability (storage, drying); format: physicochemical
Solubility at defined pH = format: physicochemical
[5] = pH of a saturated solution; format: physicochemical; conditions: saturated solution in water
[6] = Solvent solubility screen; format: physicochemical; conditions: for solubility: read-out: Approx. Solubility
Alzheimer's disease = test: Cognitive function of patients with Alzheimer's disease, transdermal patch; format: in vivo, human
Method: A person presents with early signs of Alzheimer's disease. They are administered a pharmaceutical composition via transdermal patch containing 100 mg […]2-73 freebase with a 4 cm2 patch replaced approximately every three days administration for 120 days. Blood levels of about 10 ng/ml are being maintained. […] A person presents with signs of early onset Alzheimer's disease. They are administered via a 9 cm2 transdermal patch containing a pharmaceutical composition containing 200 mg […]2-73 freebase with the patch replaced weekly for 180 days. Blood levels of about 12 ng/ml are being maintained.

HeLa cells = test: LC3-II autophagic flux, Western blot with Bafilomycin A1; format: cell-based, human; conditions: 1 μM, BafiA1 2 μM, vs control
Method: To study the effect of ANAVEX2-73 on autophagy, human HeLa cells were treated with the compound and autophagic activity was analyzed by investigating the flux of LC3-II. LC3-II is the lipidated form of LC3, which (partially) stays attached to autophagosomes and thus, gets degraded by lysosomes. Therefore, the quantification of the LC3-II flux, using Bafilomycin AI (BafiAi; 2 μM) for inhibition of lysosomal degradation, directly corresponds to cellular autophagic activity. […] There is a concentration-dependent and significant increase in the autophagic-flux following application of ANAVEX2-73: an increase of over 2-fold at 10 μM and over 1.5-fold at 1 μM ANAVEX2-73 (FIG. 35A). As standard positive control to provoke the induction of autophagy, HeLa cells were incubated with EBSS, which resembles nutrient deprivation as autophagy stimulus.
Cell culture and microscopy. HeLa and HEK293A cells were cultured in DMEM (Invitrogen, Carlsbad, CA, USA, 41965062) supplemented with active FBS (Life Technologies GmbH, Carlsbad, CA, USA, 10270106), 1×ABAM (Invitrogen, 15240-062) and 1 mM sodium pyruvate (Invitrogen, 1136-088). After medium change, the cells were treated for 2 h with 10, 1, and 0.1 μM ANAVEX2-73 and PRE-084 (Tocris, Bristol, UK, 0589), respectively; ANAVEX2-73 was provided by ANAVEX Life Sciences Corp, New York, NY, USA. Afterwards Bafilomycin A1 (Bafi.Ai; 2 μM) (Toronto Research Chemicals, North York, ON, Canada, B110000) or DMSO was added for a further 2 h and the cells were eventually harvested. Western blot analyses were performed as described previously. Briefly, cells were subjected to SDS-PAGE using precast NuPAGE 4%-12% Bis-Tris gels (Invitrogen, NP0322). Proteins were detected by chemiluminescence using the Amersham Imager 600 (GE). Confocal fluorescence microscopical analyses of HEK293A cells stably expressing GFP-LC3B were performed with the laser scanning microscope LSM 710 (Zeiss, Oberkochen).

ULK1 = ULK1 serine 555 phosphorylation, Western blot; format: cell-based, human; conditions: 1 μM; HeLa cells
Excerpt: Activation of the serine/threonine protein kinase ULK1 (unc-51-like kinase 1) via phosphorylation at serine 555 indicates stimulation of the canonical autophagy pathway. […] It has to be mentioned that this activating ULK1 phosphorylation can be inhibited by mTOR as well as stimulated via AMPK kinase. Both are basal physiological sensors of nutritional conditions and key signal transducers of canonical autophagy stimulation. ULK1 is in fact the signal mediating the induction of the formation of the phagophore during the autophagy process and, therefore, a central promoter of autophagy. ULK1 itself functions in a complex with at least three protein partners: FI P200 (focal adhesion kinase family interacting protein of 200 kDa), ATG (autophagy-related protein) 13 (ATG13), and ATG101.
Cell culture and microscopy. HeLa and HEK293A cells were cultured in DMEM (Invitrogen, Carlsbad, CA, USA, 41965062) supplemented with active FBS (Life Technologies GmbH, Carlsbad, CA, USA, 10270106), 1×ABAM (Invitrogen, 15240-062) and 1 mM sodium pyruvate (Invitrogen, 1136-088). […] Proteins were detected by chemiluminescence using the Amersham Imager 600 (GE). Confocal fluorescence microscopical analyses of HEK293A cells stably expressing GFP-LC3B were performed with the laser scanning microscope LSM 710 (Zeiss, Oberkochen).

CN(C)CC1CCOC1(c1ccccc1)c1ccccc1.Cl (centres unmarked) [Form III, tetrahydro-N,N-dimethyl-2,2-diphenyl-3-furanmethanamine hydrochloride]
hygroscopicity ([1]; hydrochloride): slightly-hygroscopic

CN(C)CC1CCOC1(c1ccccc1)c1ccccc1 (centres unmarked) [ANAVEX2-73 fumarate, tetrahydro-N,N-dimethyl-2,2-diphenyl-3-furanmethanamine]
amount administered per day as revealed by blood levels ([2]; 30 mg enteric coated tablet every other day, 180 days): about 25 mg per day | cognitive function ([3]; 30 mg enteric coated tablet every other day): stabilizes during that period with no additional loss detected

CN(C)CC1CCOC1(c1ccccc1)c1ccccc1.Cl (centres unmarked) [Form II, tetrahydro-N,N-dimethyl-2,2-diphenyl-3-furanmethanamine hydrochloride]
hygroscopicity ([1]; hydrochloride): slightly hygroscopic

CN(C)CC1CCOC1(c1ccccc1)c1ccccc1 (centres unmarked) [A2-73 sulfate Form II, tetrahydro-N,N-dimethyl-2,2-diphenyl-3-furanmethanamine]
form stability on storage ([4]; post-storage at 40° C./75% RH): metastable, converting to A2-73 sulfate Form I

CN(C)CC1CCOC1(c1ccccc1)c1ccccc1.Cl (racemic) [Form VIII, tetrahydro-N,N-dimethyl-2,2-diphenyl-3-furanmethanamine hydrochloride]
form stability on drying ([4]; dried after isolation wet with water): once dried, it converts to Form I

CN(C)CC1CCOC1(c1ccccc1)c1ccccc1 (centres unmarked) [A2-73 hydrogen fumarate Form III, tetrahydro-N,N-dimethyl-2,2-diphenyl-3-furanmethanamine]
hygroscopicity [1]: slightly hygroscopic | water uptake (GVS) [1]: ca. 0.9 % w/w | solubility at GI pH (Solubility at defined pH; GI pH): lower solubility | solubility at gastric pH (Solubility at defined pH; gastric pH (generally about 1.5 to 3.5)): moderate solubility | solubility (Solubility at defined pH; pH 1.2): ca. 43.0 mg/mL | solubility (Solubility at defined pH; pH 4.5): ~4.1 mg/mL | solubility (Solubility at defined pH; pH 6.8, aqueous buffer, pH 6.8, read-out: solubility): ~12.6 mg/mL | pH of a saturated solution [5]: 3.61

CN(C)CC1CCOC1(c1ccccc1)c1ccccc1 (centres unmarked) [A2-73 dihydrogen phosphate Form I, tetrahydro-N,N-dimethyl-2,2-diphenyl-3-furanmethanamine]
hygroscopicity [1]: hygroscopic | solubility (Solubility at defined pH; pH 1.2, simulated gastric fluid, pH 1.2, read-out: solubility): ~47.2 mg/mL | solubility (Solubility at defined pH; pH 4.5): ~33.1 mg/mL | pH of a saturated solution [5]: 2.66

CN(C)CC1CCOC1(c1ccccc1)c1ccccc1 (centres unmarked) [A2-73 freebase Form I, tetrahydro-N,N-dimethyl-2,2-diphenyl-3-furanmethanamine]
hygroscopicity [1]: non-hygroscopic | water uptake (GVS) [1]: 0.3 % w/w | XRPD analysis post-GVS ([1]; post-GVS): no change in form | solubility ([6]; 1,4-dioxane, organic solvent or mixture): ≥ 200 mg/mL | solubility ([6]; 1-butanol, organic solvent or mixture): ≥ 200 mg/mL | solubility ([6]; 2-butanone, organic solvent or mixture): ≥ 200 mg/mL | solubility ([6]; N,N′-dimethylformamide, organic solvent or mixture): ≥ 200 mg/mL | solubility ([6]; acetone, organic solvent or mixture): ≥ 200 mg/mL | solubility in the solvents tested (summary) ([6]; all solvents of Table 10): high solubility in all solvents tested, except water | solubility ([6]; cyclohexane, organic solvent or mixture): ≥ 200 mg/mL | solubility ([6]; dimethyl sulfoxide, organic solvent or mixture): ≥ 200 mg/mL | solubility ([6]; heptane, organic solvent or mixture): ≥ 200 mg/mL | solubility ([6]; methyl acetate, organic solvent or mixture): ≥ 200 mg/mL | solubility ([6]; methyl isobutyl ketone, organic solvent or mixture): ≥ 200 mg/mL | solubility ([6]; nitromethane, organic solvent or mixture): ≥ 200 mg/mL | solubility ([6]; tetrahydrofuran, organic solvent or mixture): ≥ 200 mg/mL | solubility ([6]; water): < 5 mg/mL | water solubility (Solubility at defined pH; water): not highly water soluble | amount administered per day as revealed by blood levels ([2]; 50 mg enteric coated tablet every other day, 180 days): about 20 mg per day | blood levels maintained ([2]; transdermal patch 100 mg, 4 cm2, replaced approximately every three days, 120 days): about 10 ng/ml | blood levels maintained ([2]; transdermal patch 200 mg, 9 cm2, replaced weekly, 180 days): about 12 ng/ml | cognitive function (Alzheimer's disease; early onset Alzheimer's disease, patch 200 mg, 9 cm2, weekly, 180 days): stabilizes during that period with no additional loss detected | cognitive function (Alzheimer's disease; early signs of Alzheimer's disease, patch 100 mg, 4 cm2, every three days, 120 days): stabilizes during that period, with no additional loss detected | cognitive function ([3]; 50 mg enteric coated tablet every other day): stabilizes during that period with no additional loss detected

O=C(OCCN1CCOCC1)C1(c2ccccc2)CCCCC1 [PRE-084, 2-morpholin-4-ylethyl 1-phenylcyclohexane-1-carboxylate, reference compound]
increase in autophagic flux (LC3-II) (HeLa cells): over 1.5 fold | ULK1 serine 555 phosphorylation (ULK1): up to 1.5 fold
